Experimental data from patent US11292787B2, “Five-membered-fused-six-membered aza-aromatic ring compound, preparation method thereof, pharmaceutical composition and application thereof” (XIAMEN UNIVERSITY, priority 2017, dated 2022).
“Also recorded” adds a separate entry of the source.

What was measured:
SW620 xenograft = assay: Nude mouse SW620 xenograft tumor experiment; type: in vivo, nude mice; details: tail vein, 40 mg/kg, 80 mg/kg per day, 10 days
Procedure: (§1) The specific method was as follows:
1. 4-5 weeks old nude mice were subcutaneously injected with a SW620 cell suspension with a cell number controlled at about 5×10^6.
2. The tumor-bearing condition was observed after two to three days, and the mice were administered when the tumor volume was about 150 mm^3.
4. The mice were injected intravenously regularly with drug or control solvent every day, and the daily tumor volume was recorded.
5. The mice were continuously administered for 10 days, and the changes in tumor volume of the drug-administered group and the control group were observed.
6. 10 days later, eyeball blood was taken from all mice, and blood samples were kept for subsequent testing. After the mice were killed, the subcutaneously growing tumors were completely taken out, the tumor weights were recorded, and the tumors were stored in liquid nitrogen for subsequent testing.

HT-29 cells = assay: Soft agar colony formation, HT-29 cells (RAF mutation); type: cell-based; details: RAF mutation genetic background, FIG. 2c
Procedure: as §1
(§2) 1) 1% agar was formulated, and autoclaved. 1% agar was heated and melted in a boiling water bath before use, and then cooled in a 40° C. water bath (by holding in the bath for at least 30 minutes, the agar was cooled to a temperature of 40° C.); at the same time, 2×DMEM/FBS was placed in a warm bath. 2) A bottom agar with 0.5% agar was prepared by mixing 1% agar with 2×DMEM/FBS in a sterile tube at a volume ratio of 1:1. The mixed solution was added to a 6-well plate rapidly at 1.5 ml per well, shaked slightly, and placed at room temperature for solidification (after solidification, the bottom agar could be stored at 4° C. for 1 week. Before use, it was placed at room temperature for at least 30 minutes to return to room temperature).
(§3) 1) A mixed solution with a final concentration of 0.3% agar+1×DMEM/FBS was formulated in a sterile tube using 1% agar, 2×DMEM/FBS and sterile water at a temperature of 40° C. The prepared mixed solution was placed in a 40° C. water bath for use.
(§4) 2) The cells were trypsinized and counted. The cell density was adjusted according to the needs of the experiment. […]

MCF-7 cells = assay: Soft agar colony formation, MCF-7 cells (K-RAS-WT); type: cell-based; details: K-RAS-WT genetic background, FIG. 2a
Procedure: as §1, §2, §3, §4

K-RAS-G12V = biological target: T1, K-RAS-G12V (Homo sapiens, UniProt P01116, G12V); assay: Degradation of overexpressed K-RAS-G12V protein in 293T cells (FIG. 1a); type: cell-based; details: 293T cells overexpressing K-RAS-G12V
T1 construct: expressed in transfected cells; host or cells: 293T
Procedure: (§5) Inhibitory activity of compounds on K-RAS was evaluated by the degradation rate of protein level of administration group relative to control group (Cell Rep 2014, 7, 871-882).

K-Ras protein = biological target: T2, K-Ras protein (Homo sapiens, UniProt P01116, G12V); assay: K-Ras protein degradation rate by Western blot in SW-620 cells; type: cell-based; details: for percent K-Ras protein degradation (single point) at 10 µM: SW-620 cells, 24 h, Western blot, relative to DMSO control, read-out: Degradation rate of compounds at 10 μM on Ras protein (%)
T2 construct: in SW620 cells, compound I-a-1 can effectively enhance the degradation of endogenous K-RAS-G12V proteins; endogenous in cells; host or cells: SW-620
Procedure: as §5, §1
1. Cell plating: SW-620 cells in logarithmic growth phase were inoculated into a 24-well plate at 2×10^4/well, and cultured in a 37° C., 5% CO2 incubator.
2. Administering drug to cells: after 24 h of culture, various drug stocks […]; the original solution in the 24-well plate was discarded, to which was added the obtained drug solution, with the DMSO group as the blank control; after the drug solution was added, the 24-well plate was transferred to the 37° C. CO2 incubator to continue the culture.
3. Detection of K-Ras protein level: after 24 h of administration and culture, the liquid in the well was discarded, the cells were routinely collected, and rinsed twice with 1×PBS, a cell lysate was added to extract the total cellular protein, and the protein concentration was determined by BCA method. 30 μg of the protein sample was taken for SDS-polyacrylamide gel electrophoretic transmembrane, the membrane was blocked sequentially, incubated with K-Ras antibody (1:1000) and internal reference antibody β-actin (1:2000) respectively overnight at 4° C., rinsed with TBST for 5 min×3 times, then incubated with the addition of the corresponding horseradish peroxidase-labeled secondary antibody (1:5000) for 1-2 h, and rinsed with TBST for 5 min×3 times. Finally, chemiluminescence image was acquired using Image Lab software.
4. Calculation of single-point K-Ras protein degradation rate: quantitative and calibration analysis of K-Ras and β-actin were conducted using Image-Lab software, and then the intracellular K-Ras degradation rate was calculated according to the following formula: single-point K-Ras protein degradation rate (%)=(control group−administration group)/control group×100%. The drug with degradation rate ≥20% was selected for soft agar experiment.

SW620 cells = assay: Soft agar colony formation, SW620 cells (K-RAS-G12V); type: cell-based; details: K-RAS-G12V genetic background, FIG. 2b
Procedure: as §1, §2, §3, §4

Row | percent K-Ras protein degradation (single point) at 10 µM (K-Ras protein) [%] | Structure (SMILES) | tumor growth (tumor volume) (SW620 xenograft; FIG. 3a) | final tumor weight (SW620 xenograft; FIG. 3b) | colony formation on soft agar (HT-29 cells) | colony formation on soft agar (MCF-7 cells) | degradation of exogenous overexpressed RAS (K-RAS-G12V) protein (K-RAS-G12V) | degradation of endogenous K-RAS-G12V protein (K-Ras protein; SW620 cells, FIG. 1b) | colony formation on soft agar (SW620 cells)
1 | 52 | O=C(NCc1c(F)cccc1Cl)c1csc(-c2n[nH]c3ccccc23)c1 [I-a-1] | could effectively inhibit the growth of cancer cells with RAS positive genetic background in nude mice; also recorded: can effectively inhibit the increase of tumor volume and has good dose dependence | obviously smaller than that of the control group | does not inhibit colony formation of the cells | can effectively inhibit colony formation of the cells | can effectively enhance the degradation of exogenous overexpressed RAS proteins and has good concentration dependence | can effectively enhance the degradation of endogenous K-RAS-G12V proteins and has good concentration dependence | –
2 | 21 | O=C(NCc1c(F)cccc1Cl)c1csc(-c2n[nH]c3ncccc23)c1 [III-a-1] | – | – | – | – | – | – | can effectively inhibit colony formation of the cells
